Test results: patent publication US20240016941A1, “COMBINATION THERAPY” (priority 2020, published 2024)

How the values were obtained:
[1] = target: T1, purified LasB protein from P. aeruginosa (Pseudomonas aeruginosa, UniProt P14756); assay: Fluorometric assay to determine Ki (purified LasB, Abz-Ala-Gly-Leu-Ala-p-Nitro-Benzyl-Amide substrate); type: biochemical
T1 construct: purchased Merck or Charles River Laboratories
Experimental: (§1) Experiments were therefore conducted (1) to measure the potency of inhibition of compounds of the invention against purified Pseudomonas aeruginosa LasB enzyme and also experiments were conducted (2) to measure the ability of compounds of the invention to inhibit LasB-catalysed elastin degradation. The first assay uses a commercial fluorescent synthetic peptide and purified LasB enzyme. The LasB hydrolysis kinetics are measured allowing the determination of the IC50 and Ki of the inhibitors; the second is a more physiological assay using dialysed Pseudomonas aeruginosa supernatant as source of enzyme, plus its natural substrate Elastin. It is an “end point assay” that determines the percentage of LasB inhibition by each compound for one particular time point and inhibitor concentration. Technical details are described below:
This assay uses commercially available substrate (Abz-Ala-Gly-Leu-Ala-p-Nitro-Benzyl-Amide (Ex: 340 nm, Em: 415 nm) from Peptide International) and purified LasB protein from P. aeruginosa (provided by Merck or Charles River Laboratories). It is performed to determine LasB elastase activity and assess compound inhibition in 96-well plate format. All compounds of Formula (I) were assessed using the method described below.
Method: 10 to 140 ng/ml purified LasB is incubated with 250 μM Abz-Ala-Gly-Leu-Ala-p-Nitro-Benzyl-Amide in 50 mM Tris-HCl pH 7.4, 2.5 mM CaCl2), 0.01% of Triton X100 at 37° C. LasB activity (corresponding to fluorescence emission induced by substrate hydrolysis) is measured over 30 min at 37° C. with a fluorescence plate reader such as the Perkin Elmer Envision or similar. Different range of inhibitor concentrations are routinely assessed depending of inhibitor potency from 0.0016 to 200 μM (2-fold dilutions series) in order to determine IC50.
The equation used to calculate the Ki from IC50 is: Ki=IC50/(1+([S]/Km)) where [S]=250 μM and Km=214 μM.

[2] = target: T2, LasB elastase activity of dialysed supernatant from P. aeruginosa PAO1 (Pseudomonas aeruginosa, UniProt P14756); assay: Elastin Congo-Red assay to determine % inhibition (dialysed PAO1 supernatant); type: biochemical; settings: read-out: Elastin hydrolysis % inhibition @ 25 μM inhibitor concentration
T2 construct: Culture supernatants are recovered by centrifugation and filtrated through a 0.22 μM filter; endogenous in cells; host or cells: P. aeruginosa strain PAO1, culture supernatant, filtered and dialysed
T2 sequence (P14756 198-498): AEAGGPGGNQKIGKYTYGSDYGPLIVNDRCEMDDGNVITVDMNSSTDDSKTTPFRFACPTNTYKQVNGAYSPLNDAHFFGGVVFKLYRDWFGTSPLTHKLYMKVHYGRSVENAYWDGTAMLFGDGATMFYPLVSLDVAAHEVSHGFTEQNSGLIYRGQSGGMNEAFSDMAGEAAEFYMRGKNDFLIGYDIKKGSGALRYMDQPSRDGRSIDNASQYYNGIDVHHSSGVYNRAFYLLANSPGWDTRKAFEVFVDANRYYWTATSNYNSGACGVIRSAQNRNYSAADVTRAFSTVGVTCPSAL
Experimental: as §1
The Elastin assay uses as source of enzyme dialysed supernatant from P. aeruginosa PAO1 and the Elastin Congo-Red as substrate. The natural LasB substrate, elastin, is complexed with the congo-red dye (Elastin Congo-Red, ECR). The elastolysis activity from the culture supernatant will degrade elastin and release the congo-red dye into the supernatant. This red dye release can be measured with a spectrophotometer.
Method: To determine LasB elastase activity and assess compound inhibition, an overnight culture of P. aeruginosa strain PAO1 is diluted in LB medium. After reaching an OD600nm of 0.6, this culture is diluted and incubated for additional 18-24 hours in a shaking incubator. Culture supernatants are recovered by centrifugation and filtrated through a […] filter. These supernatants are dialysed (filtration molecules <20 kDa) into a 50 mM Tris-HCl pH 7.4, 2.5 mM CaCl2 solution at 4° C. under agitation for 24 hours. Supernatant dialysed is then mixed volume/volume with the ECR suspension (20 mg/mL of ECR in 100 mM Tris-HCl pH 7.4 buffer supplemented with 1 mM CaCl2)) supplemented with Triton X100 (final concentration of 0.01%) in presence of DMSO (positive control) and/or different concentrations of compound (routinely 50 to 1.56 μM). As a negative control, the dialysed supernatant is replaced by Tris-HCl solution (50 mM Tris-HCl pH 7.4, 2.5 mM CaCl2). The mixed reaction is then incubated overnight in a 37° C. shaking incubator. The reaction supernatant is recovered by centrifugation and the release of congo-red is measured by its absorbance at 495 nm (OD495nm).
Percentage inhibition is determined using the following equation:
((OD495 nm value of positive control−OD495nm value of negative control)−(OD495nm value of treated supernatant−OD495nm value of negative control))/(OD495nm value of positive control−OD495nm value of negative control)×100.

T1 sequence (P14756 198-498): as above

SMILES | Ki [1] [nM] | inhibition at 25 µM [2] [%]
CN(C)CCNC(=O)c1ccc2sc(CNC(=O)C3(CC(=O)O)Cc4ccccc4C3)nc2c1 [Example 28, 2-[2-[[5-[2-(dimethylamino)ethylcarbamoyl]-1,3-benzothiazol-2-yl]methylcarbamoyl]indan-2-yl]acetic acid] | 200 to 10000 | –
COc1cc2sc(CNC(=O)C3(CC(=O)[O-])Cc4ccccc4C3)nc2cc1S(=O)(=O)N1CCC([N+](C)(C)C)CC1 [Example 47, 2-[2-[[6-methoxy-5-[[4-(trimethylammonio)-1-piperidyl]sulfonyl]-1,3-benzothiazol-2-yl]methylcarbamoyl]indan-2-yl]acetate] | 50 to 200 | 60 to 80
COc1cc2sc(CNC(=O)C3(CC(=O)[O-])Cc4cc(F)c(F)cc4C3)nc2cc1OCC(=O)N1CC[N+](C)(C)CC1 [Example 14, 2-[2-[[5-[2-(4,4-dimethylpiperazin-4-ium-1-yl)-2-oxo-ethoxy]-6-methoxy-1,3-benzothiazol-2-yl]methylcarbamoyl]-5,6-difluoro-indan-2-yl]acetate] | 50 to 200 | 60 to 80
COc1cc2sc(CNC(=O)C3(CC(=O)O)Cc4ccccc4C3)nc2cc1S(=O)(=O)N1CCN(C)CC1 [Example 45, 2-[2-[[6-methoxy-5-(4-methylpiperazin-1-yl)sulfonyl-1,3-benzothiazol-2-yl]methylcarbamoyl]indan-2-yl]acetic acid] | 50 to 200 | 60 to 80
CN(C)C1CN(C(=O)c2ccc3nc(CNC(=O)C4(CC(=O)O)Cc5ccccc5C4)sc3c2)C1 [Example 26, 2-[2-[[6-[3-(dimethylamino)azetidine-1-carbonyl]-1,3-benzothiazol-2-yl]methylcarbamoyl]indan-2-yl]acetic acid] | 200 to 10000 | –
CN(C)C1CN(C(=O)c2ccc3sc(CNC(=O)C4(CC(=O)O)Cc5ccccc5C4)nc3c2)C1 [Example 32, 2-[2-[[5-[3-(dimethylamino)azetidine-1-carbonyl]-1,3-benzothiazol-2-yl]methylcarbamoyl]indan-2-yl]acetic acid] | 50 to 200 | 60 to 80
COc1cc2sc(CNC(=O)C3(CC(=O)[O-])Cc4ccccc4C3)nc2cc1OCC1CC[N+](C)(C)CC1 [Example 17, 2-[2-[[5-[(1,1-dimethylpiperidin-1-ium-4-yl)methoxy]-6-methoxy-1,3-benzothiazol-2-yl]methylcarbamoyl]indan-2-yl]acetate] | 50 to 200 | 60 to 80
N#Cc1ccc2nc(CNC(=O)C3(CC(=O)O)Cc4ccccc4C3)sc2c1 [Example 48, 2-[2-[(6-cyano-1,3-benzothiazol-2-yl)methylcarbamoyl]indan-2-yl]acetic acid] | 50 to 200 | 60 to 80
COc1cc2sc(CNC(=O)C3(CC(=O)[O-])Cc4ccccc4C3)nc2cc1OCCC[N+]1(C)CCOCC1 [Example 16, 2-[2-[[6-methoxy-5-[3-(4-methylmorpholin-4-ium-4-yl)propoxy]-1,3-benzothiazol-2-yl]methylcarbamoyl]indan-2-yl]acetate] | < 50 | 60 to 80
COc1cc2sc(CNC(=O)C3(CC(=O)[O-])Cc4cc(F)c(F)cc4C3)nc2cc1OCC[N+]1(C)CCOCC1 [Example 13, 2-[5,6-difluoro-2-[[6-methoxy-5-[2-(4-methylmorpholin-4-ium-4-yl)ethoxy]-1,3-benzothiazol-2-yl]methylcarbamoyl]indan-2-yl]acetate] | 50 to 200 | 60 to 80
O=C(O)CC1(C(=O)NCc2nc3ccc(OCCCO)cc3s2)Cc2ccccc2C1 [Example 50, 2-[2-[[6-(3-hydroxypropoxy)-1,3-benzothiazol-2-yl]methylcarbamoyl]indan-2-yl]acetic acid] | 50 to 100 | –
N#Cc1ccc2sc(CNC(=O)C3(CC(=O)O)Cc4ccccc4C3)nc2c1 [Example 49, 2-[2-[(5-cyano-1,3-benzothiazol-2-yl)methylcarbamoyl]indan-2-yl]acetic acid] | 50 to 200 | 60 to 80
CN1CCN(C(=O)c2ccc3nc(CNC(=O)C4(CC(=O)O)Cc5ccccc5C4)sc3c2)CC1 [Example 29, 2-[2-[[6-(4-methylpiperazine-1-carbonyl)-1,3-benzothiazol-2-yl]methylcarbamoyl]indan-2-yl]acetic acid] | 200 to 10000 | –
COc1cc2sc(CNC(=O)C3(CC(=O)[O-])Cc4ccccc4C3)nc2cc1OCCOCC[N+](C)(C)C [Example 54, 2-[2-[[6-methoxy-5-[2-[2-(trimethylammonio)ethoxy]ethoxy]-1,3-benzothiazol-2-yl]methylcarbamoyl]indan-2-yl]acetate] | 50 to 100 | –
COc1cc2sc(CNC(=O)C3(CC(=O)O)Cc4ccccc4C3)nc2cc1OCCCN(C)C [Example 52, 2-[2-[[5-[3-(dimethylamino)propoxy]-6-methoxy-1,3-benzothiazol-2-yl]methylcarbamoyl]indan-2-yl]acetic acid] | 50 to 100 | –
CS(=O)(=O)c1cccc2sc(CNC(=O)C3(CC(=O)O)Cc4ccccc4C3)nc12 [Example 7, 2-[2-[(4-methylsulfonyl-1,3-benzothiazol-2-yl)methylcarbamoyl]indan-2-yl]acetic acid] | 200 to 10000 | –
O=C(O)CC1(C(=O)NCc2nc3c(C(=O)N4CCCC4)cccc3s2)Cc2ccccc2C1 [Example 2, 2-[2-[[4-(pyrrolidine-1-carbonyl)-1,3-benzothiazol-2-yl]methylcarbamoyl]indan-2-yl]acetic acid] | 200 to 10000 | –
COc1cc2sc(CNC(=O)C3(CC(=O)[O-])Cc4cc(F)c(F)cc4C3)nc2cc1OCC[N+](C)(C)C [Example 56, 2-[5,6-difluoro-2-[[6-methoxy-5-[2-(trimethylammonio)ethoxy]-1,3-benzothiazol-2-yl]methylcarbamoyl]indan-2-yl]acetate] | 50 to 100 | –
NS(=O)(=O)c1cccc2sc(CNC(=O)C3(CC(=O)O)Cc4ccccc4C3)nc12 [Example 4, 2-[2-[(4-sulfamoyl-1,3-benzothiazol-2-yl)methylcarbamoyl]indan-2-yl]acetic acid] | 200 to 10000 | –
O=C(O)CC1(C(=O)NCc2nc3c(S(=O)(=O)N4CCNCC4)cccc3s2)Cc2ccccc2C1 [Example 5, 2-[2-[(4-piperazin-1-ylsulfonyl-1,3-benzothiazol-2-yl)methylcarbamoyl]indan-2-yl]acetic acid] | 200 to 10000 | –
CCCOc1ccc2nc(CNC(=O)C3(CC(=O)O)Cc4ccccc4C3)sc2c1 [Example 51, 2-[2-[(6-propoxy-1,3-benzothiazol-2-yl)methylcarbamoyl]indan-2-yl]acetic acid] | 50 to 100 | –
CN(C)CCCN1CCN(C(=O)c2ccc3sc(CNC(=O)C4(CC(=O)O)Cc5ccccc5C4)nc3c2)CC1 [Example 31, 2-[2-[[5-[4-[3-(dimethylamino)propyl]piperazine-1-carbonyl]-1,3-benzothiazol-2-yl]methylcarbamoyl]indan-2-yl]acetic acid] | 200 to 10000 | –
CN(C)CCNC(=O)c1ccc2nc(CNC(=O)C3(CC(=O)O)Cc4ccccc4C3)sc2c1 [Example 30, 2-[2-[[6-[2-(dimethylamino)ethylcarbamoyl]-1,3-benzothiazol-2-yl]methylcarbamoyl]indan-2-yl]acetic acid] | 200 to 10000 | –
COc1cc2sc(CNC(=O)C3(CC(=O)[O-])Cc4ccccc4C3)nc2cc1C(=O)N1CCC([N+](C)(C)C)CC1 [Example 39, 2-[2-[[6-methoxy-5-[4-(trimethylammonio)piperidine-1-carbonyl]-1,3-benzothiazol-2-yl]methylcarbamoyl]indan-2-yl]acetate] | 200 to 10000 | –
